Results as given in ChEMBL document CHEMBL1201862, “PubChem BioAssay data set” (2004).
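Five compound concentrations were applied to cells in 96-well plates for 48 hours; endpoints were derived by simple linear interpolation of the resulting dose-response curve. The concentration for 50% growth inhibition is given as GI50.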 Active and inactive are the calls of the source. Cut-off read from the data, not from the text of the source: active = GI50 up to about 1.1 µM and inactive = higher.

Legend:
Experiment in all cases: NCI-60 cell line screen, 48 h
XF498 = system: XF498
LXFL 529 = system: LXFL 529
M19-MEL = system: M19-MEL
RXF 631 = system: RXF 631
DMS-114 = system: DMS-114
DLD-1 = system: DLD-1
DMS-273 = system: DMS-273
HOP-18 = system: HOP-18
BT-549 = system: BT-549

Compound	GI50 (XF498)	GI50 (LXFL 529)	GI50 (M19-MEL)	GI50 (RXF 631)	GI50 (DMS-114)	GI50 (DLD-1)	GI50 (DMS-273)	GI50 (HOP-18)	GI50 (BT-549)
O=C(O)C1=C(Cl)c2ccccc2S1(=O)=O	> 100 µM (inactive)	> 100 µM (inactive)	> 100 µM (inactive)	> 100 µM (inactive)	> 100 µM (inactive)	> 100 µM (inactive)			
CN(C(=O)c1ccc([N+](=O)[O-])cc1)c1ccccc1	> 100 µM (inactive)	> 100 µM (inactive)	> 100 µM (inactive)	> 100 µM (inactive)	> 10 µM (inactive)	> 100 µM (inactive)	> 100 µM (inactive)	> 100 µM (inactive)	
C/C(=N\NC(N)=S)c1ccc(C)c(C)c1	19.4 µM (inactive)	19.4 µM (inactive)	35.7 µM (inactive)	75.3 µM (inactive)	16.6 µM (inactive)	30.9 µM (inactive)	> 100 µM (inactive)	30.6 µM (inactive)	
CC1(C)CC(/C=C2/OC(=O)c3ccccc32)=C(C#N)C(=O)O1	> 100 µM (inactive)	> 100 µM (inactive)	> 100 µM (inactive)	> 100 µM (inactive)		> 100 µM (inactive)	> 100 µM (inactive)		
CC(C)(c1ccc(Oc2ccc(C#N)c(C#N)c2)cc1)c1ccc(Oc2ccc(C#N)c(C#N)c2)cc1	> 10 µM (inactive)	> 10 µM (inactive)	> 10 µM (inactive)	> 10 µM (inactive)	> 10 µM (inactive)	> 10 µM (inactive)		> 10 µM (inactive)	
C=CC/N=C1\N=C(C)C(C(=O)OCC)S1 (stereo not given)	> 100 µM (inactive)	> 100 µM (inactive)		> 100 µM (inactive)	> 100 µM (inactive)	> 100 µM (inactive)	> 100 µM (inactive)	> 100 µM (inactive)	
COc1ccc2nc3ccccc3c(NCCCCCCN(CCCl)CCCl)c2c1	0.136 µM (active)	0.107 µM (active)	0.132 µM (active)	0.104 µM (active)	0.155 µM (active)	0.109 µM (active)	0.0328 µM (active)		0.323 µM (active)
